{
  "source": "patent US20100178334A1",
  "about": "“Oral Pharmaceutical Dosage Form Comprising as Active Ingredients a Proton Pump Inhibitor together with Acetyl Salicyclic Acid” (priority 2005, published 2010)",
  "key": {"[1]": {"tested_on": "damages on the mucosa caused by ASA", "conditions": "concomitant administration for patients treated with ASA; cited from earlier work"}, "[2]": {"tested_on": "gastric and/or duodenal ulcers in Helicobacter pylori-negative patients ≧60 years receiving ASA", "experiment": "randomized, multicenter, placebo-controlled trial of esomeprazole 20 mg once daily for 26 weeks in patients receiving ASA", "type": "in vivo, human", "description": "Patients were randomized to receive either esomeprazole 20 mg (administered as esomeprazole magnesium, i.e. Nexium® owned by AstraZeneca AB) or placebo once daily for 26 weeks. The primary outcome variable was the presence of gastric and/or duodenal ulcers at endoscopy over the 26-week period. A total of 991 patients, all receiving ASA in doses varying between 75-325 mg/day (57.1% male, mean age 69.3 years, mean acetyl salicylic acid (ASA) dose 124.0 mg/day) were included in the intent-to-treat population. The cumulative proportion of patients without either gastric or duodenal ulcer at 26 weeks was 98.2% with esomeprazole, compared with 93.8% with placebo (life table estimates, p=0.0007). The incidence of gastric ulcers was lower in patients taking esomeprazole than in those taking placebo (1.2% vs. 3.8%), as was the incidence of duodenal ulcers (0.4% and 1.6% for esomeprazole and placebo, respectively). Eight patients (1.6%) had developed an ulcer, in the esomeprazole group by 6 months, compared with 27 patients (5.4%) in the placebo group. This corresponded to a relative reduction of developing an ulcer of 70% when taking esomeprazole rather than placebo. A total of 95.6% of patients treated with esomeprazole had no esophageal lesions at week 26, compared with 81.7% of patients treated with placebo (p<0.0001)."}, "[3]": {"tested_on": "ulcer complication like bleeding from the stomach or the duodenum", "conditions": "cited from earlier work"}, "[4]": {"conditions": "esomeprazole 20 mg once daily, 26 weeks, patients on ASA"}},
  "data": [
    {"smiles": "Cc1c(OCC(F)(F)F)ccnc1C[S+]([O-])c1nc2ccccc2[nH]1", "note": "(stereo not shown) [lansoprazole]", "values": [
      {"measurement": "effect on damages on the mucosa caused by ASA", "setting": "[1]", "value": "reduce damages on the mucosa caused by ASA"}
    ]},
    {"smiles": "COc1ccc2nc([S@@+]([O-])Cc3ncc(C)c(OC)c3C)[nH]c2c1", "note": "[esomeprazole]", "values": [
      {"measurement": "resolution of investigator-assessed upper gastrointestinal symptoms", "setting": "[2]; all symptoms, versus placebo", "value": "higher with esomeprazole than with placebo"},
      {"measurement": "relative reduction of developing an ulcer when taking esomeprazole rather than placebo", "setting": "[2]; by 6 months, versus placebo", "value": 70, "unit": "%"},
      {"measurement": "safety and tolerability", "setting": "[2]; esomeprazole 20 mg once daily for 26 weeks", "value": "safe and well tolerated"},
      {"measurement": "incidence of duodenal ulcers", "setting": "[2]; [4]", "value": 0.4, "unit": "%"},
      {"measurement": "incidence of gastric ulcers", "setting": "[2]; [4]", "value": 1.2, "unit": "%"},
      {"measurement": "patients who had developed an ulcer by 6 months", "setting": "[2]; esomeprazole 20 mg once daily, patients on ASA, eight patients", "value": 1.6, "unit": "%"},
      {"measurement": "proportion of patients without esophageal lesions at 6 months", "setting": "[2]; patients with no lesions and those with Los Angeles grade A lesions at baseline, versus placebo", "value": "higher with esomeprazole than with placebo"}
    ]},
    {"smiles": "CC(=O)Oc1ccccc1C(=O)O", "note": "[ASA, acetyl salicylic acid]", "values": [
      {"measurement": "relative risk of developing an ulcer complication like bleeding from the stomach or the duodenum", "setting": "[3]; daily dose as low as 75 mg (Weil et al)", "value": "doubles"},
      {"measurement": "hospital admissions due to adverse drug reactions caused by ASA", "setting": "[3]; epidemiological data from the UK (Pirmohamed et al)", "value": 18, "unit": "%"}
    ]}
  ]
}
